Assay results as given in patent publication US8568802B2, “Process for producing enriched fractions of tetrahydroxycurcumin and tetrahydrotetrahydroxy-curcumin from the extracts of Curcuma longa” (Laila Impex, priority 2005, dated 2013).
One block for each molecule: values may come before it.

Key:
5-Lipoxygenase = 5-Lipoxygenase inhibitory activity (colorimetric, ferric xylenol orange); format: biochemical
Description: 5-Lipoxygenase activity: The enriched fraction of tetrahydroxycurcumin mixture, pure TC and tetrahydrotetrahydroxycurcumin fraction were screened for their 5-Lipoxygenase inhibitory potential using colorimetric method. The assay mixture contained 50 mM phosphate buffer pH 6.3, 5-Lipoxygenase, various concentrations of test substances in dimethyl sulphoxide and linoleic acid in a total volume of 0.5 mL, after 5 min incubation of above reaction mixture, 0.5 mL ferric xylenol orange reagent was added and OD was measured after two minutes at 585 nm using spectrophotometer. […] Percent inhibition was calculated by comparing absorbance of test solution with that of control.

[1] = system: carrageenin induced paw edema; experiment: Anti-inflammatory activity (carragenin induced paw edema method); format: in vivo, Albino wistar rats; conditions: at 25 mg concentration, oral, paw volume 3 h after carrageenin
Description: The invention also describes use of enriched tetrahydroxycurcumin fraction containing 70-100% of TC for treating anti-inflammatory conditions.
Anti-inflammatory activity (Carragenin induced paw edema method): Prior to the experiment all the animals (Albino wistar rats of either sex weighing between 180-300 g) fasted at ad libitum water and were weighed, numbered and randomly divided into groups, each containing 3 animals. Initial paw volumes were measured using plethesmometer and noted. All the groups were treated with corresponding test substance orally using gastric tube. Control group was treated with 10 mL/Kg vehicle (0.5%, carboxymethyl cellulose sodium salt). After 30 minutes, all the animals were injected subcutaneously at subplantar region of left hind paw 1% carrageenin 0.1 mL using hypodermic needle. All the animals were administered water 20 mL/Kg body weight and kept devoid of water for 3 h (maintained uniform hydration). After 3 h, paw volumes of all the animals were measured twice and average volume from two measurements were recorded. The % of inhibition of paw edema was calculated by comparing paw edema of test substance treated groups with that of control groups.

Molecule: CC(Cc1ccc(O)c(O)c1)C(C)Cc1ccc(O)c(O)c1 (centres unmarked) [NDGA, Nordihydroguaiaretic acid]
- % of inhibition (5-Lipoxygenase) (5-Lipoxygenase; concentration 24 μg/mL): 60%

- % of inhibition (5-Lipoxygenase) (5-Lipoxygenase; concentration 16 μg/mL): 60%
- melting point: 302 to 304 °C
Molecule: O=C(/C=C/c1ccc(O)c(O)c1)CC(=O)/C=C/c1ccc(O)c(O)c1 [Pure tetrahydroxycurcumin (TC), 1,7-Bis(3,4-dihydroxyphenyl)-1,6-heptadiene-3,5-dione]

Molecule: O=C(O)Cc1ccccc1Nc1c(Cl)cccc1Cl [diclofenac sodium]
- % inhibition of paw edema [1]: 63.10%

- % of inhibition (5-Lipoxygenase) (5-Lipoxygenase; concentration 41 μg/mL): 55%
Molecule: Acetyl-keto-boswellic acid [AKBA]
